Assay results reported in US20210047304A1, “Bromodomain Inhibitors” (AbbVie Inc., priority 2016, published 2021).
Read-outs that look alike come from different tables or passages of the source.

Target: BRD4 (BDI_K57-E168) (Homo sapiens, UniProt O60885)
Test: TR-FRET bromodomain binding assay, BRD4 BDI

| Ki [µM] | Molecule | Ki (mean Ki, 12 nM His tagged BRD4 (BDI_K57-E168), 100 nM Alexa647 probe, Ki calculated from IC50, probe Kd and probe concentration) [µM] |
| --- | --- | --- |
| > 13 | Cc1cc(F)cc(C)c1Oc1ccc(C(C)(C)O)cc1-c1cn(C)c(=O)cc1O[C@H]1CC[C@H](n2cnccc2=O)CC1 [Example 144, 3-[trans-4-({5-[2-(4-fluoro-2,6-dimethylphenoxy)-5-(2-hydroxypropan-2-yl)phenyl]-1-methyl-2-oxo-1,2-dihydropyridin-4-yl}oxy)cyclohexyl]pyrimidin-4(3H)-one] |  |
| > 13 | Cc1cc(F)cc(C)c1Oc1ccc(C(C)(C)O)cc1-c1cn(C)c(=O)cc1O[C@H]1CC[C@H](N2C(=O)N(C)C3(CC3)C2=O)CC1 [Example 145, 6-[trans-4-({5-[2-(4-fluoro-2,6-dimethylphenoxy)-5-(2-hydroxypropan-2-yl)phenyl]-1-methyl-2-oxo-1,2-dihydropyridin-4-yl}oxy)cyclohexyl]-4-methyl-4,6-diazaspiro[2.4]heptane-5,7-dione] |  |
|  | methyl [trans-4-({5-[2-(4-fluoro-2,6-dimethylphenoxy)-5-(2-hydroxypropan-2-yl)phenyl]-1-methyl-2-oxo-1,2-dihydropyridin-4-yl}oxy)cyclohexyl]methylcarbamate [Example 21] | 3.02 |
